Experimental findings from EP0545103A1, “Insecticidal, acaricidal and molluscicidal 1-(substituted) thioalkylpyrroles” (priority 1991, dated 1993) are described below.

Holding throughout (assay type): in vivo
The test system of assay [1] is Tetranychus urticae (OP-resistant strain), 2-spotted spider mite. Briefly: 2-spotted spider mite test, dipped infested limabean plants. The arrangement: key: 0: no effect; 10-25% kill; 26-35% kill; 36-45% kill; 46-55% kill; 56-65% kill; 66-75% kill; 76-85% kill; 86-99% kill; 9: 100% kill. Here is the method:
(§1) Test solutions are prepared by dissolving the test compound in a 35% acetone in water mixture to give a concentration of 10,000 ppm. Subsequent dilutions are made with water as needed.
Tetranychus urticae (OP-resistant strain), 2-spotted spider mite
Sieva limabean plants with primary leaves expanded to 7-8 cm are selected and cut back to one plant per pot. A small piece is cut from an infested leaf taken from the main colony and placed on each leaf of the test plants. This is done about 2 hours before treatment to allow the mites to move over to the test plant and to lay eggs. The size of the cut, infested leaf is varied to obtain about 100 mites per leaf. At the time of test treatment, the piece of leaf used to transfer the mites is removed and discarded. The newly mite-infested plants are dipped in the test solution for 3 seconds with agitation and set in the hood to dry. After 2 days one leaf is removed and mortality counts are made. After 5 days, another leaf is removed and observations are made of mortality of the eggs and/or newly emerged nymphs.
(§2) All of the above tests are rated according to the rating scale shown below.

The subject of assay [2] is Aphis fabae, mixed instar, bean aphid. Briefly: Bean aphid spray test on nasturtium. On the set-up: key: 0: no effect; 10-25% kill; 26-35% kill; 36-45% kill; 46-55% kill; 56-65% kill; 66-75% kill; 76-85% kill; 86-99% kill; 9: 100% kill. To be noted: 100 ppm. Here is the method:
as §1
Aphis fabae, mixed instar, bean aphid
Pots containing single nasturtium plants (Tropaeolum sp.) about 5 cm tall are infested with about 100-200 aphids one day prior to treatment. Each pot is sprayed with the test solution for 2 revolutions of a 4 rpm turntable in a hood, using a #154 DeVilbiss atomizer. The spray tip is held about 15 cm from the plant and the spray directed so as to give complete coverage of the plants and the aphids. The sprayed pots are set on their sides on white enamel trays and mortality estimates are made after 2 days.
as §2

Assay [3] concerns Empoasca abrupta, adult, western potato leafhopper. The experiment in a line: Western potato leafhopper systemic uptake test. On the set-up: key: 0: no effect; 10-25% kill; 26-35% kill; 36-45% kill; 46-55% kill; 56-65% kill; 66-75% kill; 76-85% kill; 86-99% kill; 9: 100% kill. To be noted: 100 ppm. Here is the method: Empoasca abrupta, adult, western potato leafhopper Systemic Uptake
An emulsion containing 0.1 gm of the test material, 0.2 gm of Emulphor EL-620® emulsifier, 10 mL of acetone and 90 mL of water is prepared and diluted 10-fold with water to give a 100 ppm emulsion. Subsequent 10-fold dilutions are made with water as needed. Sieva limabean plants, with the primary leaves expanded to a length of 7-8 cm, are cut off at least 3 cm above the soil level to avoid contamination with soil bacteria which will cause decay of the stem during the test. The cut stem is placed in the test emulsion and wrapped with a bit of cotton to hold the stem off the bottom of the bottle and to limit evaporation. The treated stem is maintained for 3 days at 27°C to allow the test compound to be taken up into the plant. Following this, one leaf is removed from the plant and placed in a 100 x 10 mm petri dish containing a moist filter paper and about 10 adult leafhoppers as described above. Mortality counts are made after 2 days.
as §2

In assay [4] the test system is Heliothis virescens, egg, tobacco budworm. The experiment in a line: Tobacco budworm egg test, dipped cotton leaf and eggs. On the set-up: key: 0: no effect; 10-25% kill; 26-35% kill; 36-45% kill; 46-55% kill; 56-65% kill; 66-75% kill; 76-85% kill; 86-99% kill; 9: 100% kill. Particulars: mortality rating after 3 days. Here is the method: as §1
Heliothis virescens, egg, tobacco budworm
A young cotton leaf about 6-7cm in length is dipped in an agitated test suspension for about 3 seconds. Eggs are collected on a cheesecloth and the cloth is cut into 10-20mm squares, each containing approximately 50-100 eggs which are 6-30 hours old. The egg-containing cheesecloth square is similarly dipped in a test suspension and placed on a treated cotton leaf. The combination is dried in a hood and then placed in an 8 ounce Dixie® cup #2168-ST (240ml volume, 6cm tall, 9.5cm top diameter, 8.0cm bottom diameter) into which a 5cm length of damp dental wick has been placed. The cup is covered with a clear plastic lid and held for 3 days, after which mortality counts are made.
as §2

For assay [5], the system named is Empoasca abrupta, adult, western potato leafhopper. The experiment in a line: Western potato leafhopper contact test, dipped limabean leaf. To be noted: mortality rating after 2 days. Here is the method: as §1
Empoasca abrupta, adult, western potato leafhopper
A Sieva limabean leaf about 5 cm long is dipped in the test solution for 3 seconds with agitation and placed in a hood to dry. The treated leaf is placed in a 100 x 10 mm petri dish containing a moist filter paper and about 10 adult leafhoppers are added. After 2 days, mortality counts are made.
as §2

In assay [6] the test system is Diabrotic undecimpunctata howardi, 3rd instar southern corn rootworm. Briefly: Southern corn rootworm soil test. On the set-up: key: 0: no effect; 10-25% kill; 26-35% kill; 36-45% kill; 46-55% kill; 56-65% kill; 66-75% kill; 76-85% kill; 86-99% kill; 9: 100% kill. To be noted: mortality rating after 6 days. Here is the method: Diabrotic undecimpunctata howardi, 3rd instar southern corn rootworm
One cc of fine talc is placed in a 30 mL wide-mouth screw-top glass jar. One mL of the appropriate acetone test solution is pipetted onto the talc so as to provide 1.25 and 0.25 mg of active ingredient per jar. The jars are set under a gentle air flow until the acetone is evaporated. The dried talc is loosened, 1 cc of millet seed is added to serve as food for the insects and 25 mL of moist soil is added to each jar. The jar is capped and the contents thoroughly mixed on a Vortex Mixer. Following this, ten 3rd instar rootworms are added to each jar and the jars are loosely capped to allow air exchange for the larvae. The treatments are held for 6 days when mortality counts are made. Missing larvae are presumed dead, since they decompose rapidly and can not be found. The concentrations used in this test correspond approximately to 50 and 10 kg/ha, respectively.
as §2

In assay [7] the test system is Spodoptera eridania, 3rd instar larvae, southern armyworm. The experiment in a line: Southern armyworm 3rd instar test, dipped limabean leaf. Particulars: for ARMYWORM Day 3: rating at 3 days; for ARMYWORM Day 5: rating at 5 days. Here is the method:
as §1
Spodoptera eridania, 3rd instar larvae, southern armyworm
A Sieva limabean leaf expanded to 7-8 cm in length is dipped in the test solution with agitation for 3 seconds and allowed to dry in a hood. The leaf is then placed in a 100 x 10 mm petri dish containing a damp filterpaper on the bottom and ten 3rd instar caterpillars. At 3 and 5 days, observations are made of mortality, reduced feeding, or any interference with normal molting.
as §2

The test system is the same in assay [8]. The experiment in a line: Southern armyworm systemic uptake (stem systemic) test. The arrangement: key: 0: no effect; 10-25% kill; 26-35% kill; 36-45% kill; 46-55% kill; 56-65% kill; 66-75% kill; 76-85% kill; 86-99% kill; 9: 100% kill. Particulars: cut stem in emulsion 3 days.
Source text: Spodoptera eridania, systemic uptake, 3rd instar larvae, southern armyworm
Subsequent 10-fold dilutions are made with water as needed. Sieva limabean plants, with the primary leaves expanded to a length of 7-8 cm, are cut off at least 3 cm above the soil level to avoid contamination with soil bacteria which will cause decay of the stem during the test. The cut stem is placed in the test emulsion and wrapped with a bit of cotton to hold the stem off the bottom of the bottle and to limit evaporation. The treated stem is thus maintained for 3 days at 27° C to allow the test compound to be taken up into the plant. Following this, one leaf is removed from the plant and placed in a 100 x 10 mm petri dish with 10 southern armyworms as described above. Mortality counts and observations of feeding damage are made 3 and 5 days later.
as §2

The test system of assay [9] is Heliothis virescens, 3rd instar tobacco budworm. The experiment in a line: Tobacco budworm 3rd instar test, dipped cotton cotyledons. The arrangement: key: 0: no effect; 10-25% kill; 26-35% kill; 36-45% kill; 46-55% kill; 56-65% kill; 66-75% kill; 76-85% kill; 86-99% kill; 9: 100% kill. Particulars: mortality rating after 3 days. Here is the method: as §1
Heliothis virescens, 3rd instar tobacco budworm
Cotton cotyledons are dipped in the test solution and allowed to dry in a hood. When dry, each is cut into quarters and ten sections are placed individually in 30 mL plastic medicine cups containing a 5-7mm long piece of damp dental wick. One 3rd instar caterpillar is added to each cup and the cup is sealed with MYLAR® film. Treatments are maintained for 3 days before a mortality count and observation of reduction in feeding damage are made.
as §2

Assay [10] concerns Spodoptera eridania, 3rd instar larvae, southern armyworm. Briefly: Southern armyworm 7-day residual test. Particulars: R designates Residual: 7-day residual foliage, concentration not given; for ARMYWORM Day 3 R: rating at 3 days; for ARMYWORM Day 5 R: rating at 5 days. Here is the method: as §1
Spodoptera eridania, 3rd instar larvae, southern armyworm, 7-day residual
The limabean leaves treated in the above test are maintained under high intensity lamps in the greenhouse for 7 days. These lamps duplicate the effects of a bright sunny day in June in New Jersey and are kept on for 14 hour day length. After 7 days, the foliage is sampled and assayed as in the above-said test.
as §2

Where [11] appears, read: 10 ppm, mortality rating after 2 days.
[12] abbreviates: spray, mortality rating after 2 days.
The mark [13] stands for this setting: cut stem in emulsion 3 days, mortality rating after 2 days.

On to `CCOC(=S)SCn1c(-c2ccc(Cl)cc2)c(C#N)c(Cl)c1C(F)(F)F` [Example 23], for which the “OP-RESISTANT MITES Adult” value in assay [1] (setting [11]) was 9 (100% kill); in assay [1] (100 ppm, mortality rating after 2 days) it was 9 (100% kill); in assay [1] (300 ppm, mortality rating after 2 days), 9 (100% kill). Besides, the “OP-RESISTANT MITES Egg” value in assay [1] (10 ppm, rating after 5 days) is given as 9 (100% kill); in assay [1] (100 ppm, rating after 5 days) it was 9 (100% kill); in assay [1] (300 ppm, rating after 5 days), 0. Besides, in assay [1] (300 ppm, rating after 5 days), the “OP-RESISTANT MITES Nymph” value was 9 (100% kill). In addition, the APHIDS in assay [2] (setting [12]) is recorded as 5 (56-65% kill). The “LEAFHOPPER Systemic” value in assay [3] (setting [13]) is listed as 0. In addition, the “TOBACCO BUDWORM Egg” value in assay [4] (1000 ppm) came out at 0. Besides, the “LEAFHOPPER Contact” value in assay [5] (10 ppm) and in assay [5] (100 ppm) was 9 (100% kill) in each case. Also, the “SOUTHERN CORN ROOTWORM” value in assay [6] (1 (ppm as headed)) was found to be 0. For the same molecule, the “ARMYWORM Day 3” value in assay [7] (10 ppm), in [7] (100 ppm) and in assay [7] (1000 ppm) was 9 (100% kill) each time. For the same molecule, the “ARMYWORM Day 5” value in assay [7] (10 ppm), in assay [7] (100 ppm) and in [7] (1000 ppm) was 9 (100% kill) in each case.

With `N#Cc1c(Cl)c(C(F)(F)F)n(CSC2=NCCCN2)c1-c1ccc(Cl)cc1` [Example 5], the “OP-RESISTANT MITES Adult” value in assay [1] (setting [11]) was 0. Besides, the “OP-RESISTANT MITES Egg” value in assay [1] (10 ppm, rating after 5 days) is 0; in [1] (100 ppm, rating after 5 days), 9 (100% kill); in assay [1] (300 ppm, rating after 5 days), 0. Further, the “OP-RESISTANT MITES Nymph” value came out at 0 in [1] (10 ppm, rating after 5 days) and 0 in assay [1] (300 ppm, rating after 5 days). The molecule further gave an APHIDS in assay [2] (setting [12]) of 0. Also, in assay [3] (setting [13]), the “LEAFHOPPER Systemic” value is 8 (86-99% kill). Also, the “TOBACCO BUDWORM Egg” value in [4] (1000 ppm) was 0. Also, in assay [8], the “ARMYWORM Stem Sys” value is 8 (86-99% kill). Also, the “TOBACCO BUDWORM 3rd Instar” value in assay [9] (10 ppm) is on record as 0; in [9] (100 ppm), 9 (100% kill); in [9] (1000 ppm), 9 (100% kill). Also, the “SOUTHERN CORN ROOTWORM” value in assay [6] (50 (ppm as headed)) was determined as 0. Besides, the “ARMYWORM Day 3 R” value in assay [10] is given as 9 (100% kill). Also, in [10], the “ARMYWORM Day 5 R” value is given as 9 (100% kill).

On to `N#Cc1c(Br)c(C(F)(F)F)n(CSc2ncc[nH]2)c1-c1ccc(Cl)cc1` [Example 1], for which the “OP-RESISTANT MITES Adult” value in assay [1] (300 ppm, adult mites, rating scale 0-9) was 0. For the same molecule, the “OP-RESISTANT MITES Egg” value in [1] (300 ppm, mite eggs, rating scale 0-9) amounted to 0. Besides, the “OP-RESISTANT MITES Nymph” value in [1] (300 ppm, mite nymphs, rating scale 0-9) is 0. In addition, in [2] (rating scale 0-9), the APHIDS turned out to be 0. For the same molecule, the “LEAFHOPPER Systemic” value in assay [3] (systemic uptake, rating scale 0-9) is 0. The “TOBACCO BUDWORM Egg” value in [4] (100 ppm) and in assay [4] (1000 ppm) was 0 in each case. The “ARMYWORM Stem Sys” value in [8] stood at 0. For the same molecule, the “SOUTHERN CORN ROOTWORM” value in [6] (50 (ppm as headed)) came out at 0. For the same molecule, the “ARMYWORM Day 3 R” value in assay [10] is on record as 9 (100% kill). The “ARMYWORM Day 5 R” value in assay [10] is given as 9 (100% kill). Further, the “ARMYWORM Day 3” value in assay [7] (10 ppm), in assay [7] (100 ppm) and in assay [7] (1000 ppm) was 9 (100% kill) in each case. Also, the “ARMYWORM Day 5” value in assay [7] (10 ppm), in assay [7] (100 ppm) and in assay [7] (1000 ppm) was 9 (100% kill) in each case.
